Measured values taken from patent publication US20220324815A1, “2-PHENOXY-PYRIMIDINE DERIVATIVES AS HERBICIDAL COMPOUNDS” (SYNGENTA CROP PROTECTION AG, priority 2019, published 2022).

Legend:
Format in all cases: in vivo
Settings in all cases: 250 g/ha unless otherwise stated, evaluated after 13 days, five-point scale
[1] = test system: Amaranthus retoflexus (AMARE); test: Test 1 glasshouse herbicide test, post-emergence application (Table B1)
Procedure: (§1) Seeds of a variety of test species are sown in standard soil in pots (Lolium perenne (LOLPE), Solanum nigrum (SOLNI), Amaranthus retoflexus (AMARE), Setaria faberi (SETFA), Echinochloa crus-galli (ECHCG) and Ipomoea hederacea (IPOHE)). After cultivation for one day (pre-emergence) or after 8 days cultivation (post-emergence) under controlled conditions in a glasshouse (at 24/16° C., day/night; 14 hours light; 65% humidity), the plants are sprayed with an aqueous spray solution derived from the formulation of the technical active ingredient in acetone/water (50:50) solution containing 0.5% Tween 20 (polyoxyethelyene sorbitan monolaurate, CAS RN 9005-64-5). Compounds are applied at 250 g/ha unless otherwise stated. The test plants are then grown in a glasshouse under controlled conditions in a glasshouse (at 24/16° C., day/night; 14 hours light; 65% humidity) and watered twice daily. After 13 days for pre and post-emergence, the test is evaluated for the percentage damage caused to the plant. The biological activities (% phytotoxicity) are shown in Tables B1 and B2 below using a five-point scale (5=81 to 100%; 4=61 to 80%; 3=41 to 60%; 2=21 to 40%; 1=0 to 20%).

[2] = test system: Echinochloa crus-galli (ECHCG); test: as above
Procedure: as §1

[3] = test system: Ipomoea hederacea (IPOHE); test: as above
Procedure: as §1

Setaria faberi (SETFA) [4] = test: as above
Procedure: as §1

[5] = test system: Amaranthus retoflexus (AMARE); test: Test 1 glasshouse herbicide test, pre-emergence application (Table B2)
Procedure: as §1

[6] = test system: Echinochloa crus-galli (ECHCG); test: as above
Procedure: as §1

[7] = test system: Ipomoea hederacea (IPOHE); test: as above
Procedure: as §1

Setaria faberi (SETFA) [8] = test: as above
Procedure: as §1

| Structure (SMILES) | % phytotoxicity AMARE, post-emergence application [1] | % phytotoxicity ECHCG, post-emergence application [2] | % phytotoxicity IPOHE, post-emergence application [3] | % phytotoxicity SETFA, post-emergence application (Setaria faberi (SETFA) [4]) | % phytotoxicity AMARE, pre-emergence application [5] | % phytotoxicity ECHCG, pre-emergence application [6] | % phytotoxicity IPOHE, pre-emergence application [7] | % phytotoxicity SETFA, pre-emergence application (Setaria faberi (SETFA) [8]) |
| --- | --- | --- | --- | --- | --- | --- | --- | --- |
| O=S(=O)(CC1CC1)c1ccccc1Oc1ncc(Cl)cn1 [Compound A51] | 3 (3=41 to 60%) | 1 (1=0 to 20%) | 1 (1=0 to 20%) | 1 (1=0 to 20%) | 4 (4=61 to 80%) | 1 (1=0 to 20%) | 1 (1=0 to 20%) | 2 (2=21 to 40%) |
| CC(C)=CCSc1ccccc1Oc1ncc(Cl)cn1 [Compound A52] | 3 (3=41 to 60%) | 4 (4=61 to 80%) | 1 (1=0 to 20%) | 3 (3=41 to 60%) | 1 (1=0 to 20%) | 2 (2=21 to 40%) | 1 (1=0 to 20%) | 1 (1=0 to 20%) |
| CCCCCCSc1ccccc1Oc1ncc(Cl)cn1 [Compound A53] | 4 (4=61 to 80%) | 1 (1=0 to 20%) | 1 (1=0 to 20%) | 1 (1=0 to 20%) | 3 (3=41 to 60%) | 2 (2=21 to 40%) | 1 (1=0 to 20%) | 3 (3=41 to 60%) |
| FC(F)(F)CSc1ccccc1Oc1ncc(Cl)cn1 [Compound A55] | 5 (5=81 to 100%) | 4 (4=61 to 80%) | 4 (4=61 to 80%) | 4 (4=61 to 80%) | 5 (5=81 to 100%) | 5 (5=81 to 100%) | 2 (2=21 to 40%) | 5 (5=81 to 100%) |
| COCCCSc1ccccc1Oc1ncc(Cl)cn1 [Compound A56] | 2 (2=21 to 40%) | 1 (1=0 to 20%) | 1 (1=0 to 20%) | 1 (1=0 to 20%) | 2 (2=21 to 40%) | 1 (1=0 to 20%) | 2 (2=21 to 40%) | 2 (2=21 to 40%) |
| Clc1cnc(Oc2ccccc2SCCn2cc(Cl)cn2)nc1 [Compound A57] | 5 (5=81 to 100%) | 4 (4=61 to 80%) | 2 (2=21 to 40%) | 4 (4=61 to 80%) | 4 (4=61 to 80%) | 3 (3=41 to 60%) | 1 (1=0 to 20%) | 4 (4=61 to 80%) |
| FCCCSc1ccccc1Oc1ncc(Cl)cn1 [Compound A59] | 5 (5=81 to 100%) | 4 (4=61 to 80%) | 2 (2=21 to 40%) | 2 (2=21 to 40%) | 5 (5=81 to 100%) | 5 (5=81 to 100%) | 2 (2=21 to 40%) | 4 (4=61 to 80%) |
| FCCSc1ccccc1Oc1ncc(Cl)cn1 [Compound A60] | 3 (3=41 to 60%) | 1 (1=0 to 20%) | 2 (2=21 to 40%) | 1 (1=0 to 20%) | 4 (4=61 to 80%) | 2 (2=21 to 40%) | 1 (1=0 to 20%) | 3 (3=41 to 60%) |
| FC(F)CSc1ccccc1Oc1ncc(Cl)cn1 [Compound A61] | 5 (5=81 to 100%) | 2 (2=21 to 40%) | 2 (2=21 to 40%) | 2 (2=21 to 40%) | 5 (5=81 to 100%) | 3 (3=41 to 60%) | 2 (2=21 to 40%) | 4 (4=61 to 80%) |
| C=C(C)CSc1ccccc1Oc1ncc(Cl)cn1 [Compound A62] | 1 (1=0 to 20%) | 4 (4=61 to 80%) | 1 (1=0 to 20%) | 3 (3=41 to 60%) | 1 (1=0 to 20%) | 3 (3=41 to 60%) | 1 (1=0 to 20%) | 3 (3=41 to 60%) |
| CCC(CC)CSc1ccccc1Oc1ncc(Cl)cn1 [Compound A64] | 2 (2=21 to 40%) | 1 (1=0 to 20%) | 2 (2=21 to 40%) | 2 (2=21 to 40%) | 1 (1=0 to 20%) | 1 (1=0 to 20%) | 1 (1=0 to 20%) | 1 (1=0 to 20%) |
| Clc1cnc(Oc2ccccc2SCc2cccc(Cl)c2)nc1 [Compound A66] | 4 (4=61 to 80%) | 4 (4=61 to 80%) | 2 (2=21 to 40%) | 3 (3=41 to 60%) | 1 (1=0 to 20%) | 2 (2=21 to 40%) | 1 (1=0 to 20%) | 2 (2=21 to 40%) |
| FC(F)=C(F)CCSc1ccccc1Oc1ncc(Cl)cn1 [Compound A68] | 5 (5=81 to 100%) | 5 (5=81 to 100%) | 5 (5=81 to 100%) | 4 (4=61 to 80%) | 5 (5=81 to 100%) | 5 (5=81 to 100%) | 4 (4=61 to 80%) | 5 (5=81 to 100%) |
| CC(C)CCSc1ccccc1Oc1ncc(Cl)cn1 [Compound A70] | 2 (2=21 to 40%) | 5 (5=81 to 100%) | 4 (4=61 to 80%) | 4 (4=61 to 80%) | 2 (2=21 to 40%) | 5 (5=81 to 100%) | 1 (1=0 to 20%) | 5 (5=81 to 100%) |
| C=CCCSc1ccccc1Oc1ncc(Cl)cn1 [Compound A71] | 5 (5=81 to 100%) | 4 (4=61 to 80%) | 4 (4=61 to 80%) | 3 (3=41 to 60%) | 5 (5=81 to 100%) | 5 (5=81 to 100%) | 1 (1=0 to 20%) | 5 (5=81 to 100%) |
| CC(C)CSc1ccccc1Oc1ncc(Cl)cn1 [Compound A72] | 3 (3=41 to 60%) | 3 (3=41 to 60%) | 2 (2=21 to 40%) | 2 (2=21 to 40%) | 4 (4=61 to 80%) | 4 (4=61 to 80%) | 1 (1=0 to 20%) | 4 (4=61 to 80%) |
| O=S(=O)(CCC(F)=C(F)F)c1ccccc1Oc1ncc(Cl)cn1 [Compound A73] | 4 (4=61 to 80%) | 3 (3=41 to 60%) | 1 (1=0 to 20%) | 3 (3=41 to 60%) | 5 (5=81 to 100%) | 5 (5=81 to 100%) | 1 (1=0 to 20%) | 4 (4=61 to 80%) |
